The target of assay [1] is T1, NIH/3T3 cells overexpressing FGFR3 V555M-TACC3 fusion protein (Homo sapiens, UniProt P22607, V555M, cells depend on it).
T1 construct: NIH/3T3 FGFR3 V555M-TACC3 CTG (IC50); other: 72-hr incubation, CellTiter Glo, starting with 10 μM; fused on or other part: Q9Y6A5 (Transforming acidic coiled-coil-containing protein 3)
Briefly: NIH/3T3 FGFR3 V555M-TACC3 cell proliferation assay. It counts as cell-based. As to conditions: 72-hr incubation, CellTiter Glo, starting with 10 μM; read-out: NIH/3T3 FGFR3 V555M-TACC3 CTG (IC50). An outline of the steps:
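NIH/3T3 cells overexpressing FGFR3 V555M-TACC3 fusion, 30,000/well in DMEM/10% FBS, treated for 72 h at 37 °C with 9 doses (4× dilutions from 10 μM top, 0.1% DMSO). CellTiter-Glo luminescence normalised to % survival; IC50, pIC50 and Hill slope from concentration-response fits.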
A general note: In ATP-based viability assays light output follows the ATP content of the culture.

Assay [2] addresses T2, human FGFR3 V555M enzyme (cytoplasmic domain carrying V555M mutation) (Homo sapiens, UniProt P22607, V555M).
T2 construct: human FGFR3 V555M enzyme (cytoplasmic domain carrying V555M mutation, from Carna Biosciences); purchased Carna Biosciences
Briefly: FGFR3 V555M mobility shift assay (enzymatic assay). It counts as biochemical. The settings on record: 30 μM ATP, 45 minutes at 30° C., Caliper EZ reader II. A digest of the protocol:
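Cytoplasmic-domain FGFR3 V555M (0.04 ng/μL) with 30 μM ATP and 1 μM FL-peptide 30 in HEPES pH 7.4/MgCl2/Brij35/DTT, 1% DMSO, 45 min at 30 °C, EDTA-stopped. Mobility-shift read of substrate-product conversion; 10-point 4× dilution from 10 μM fitted for IC50/pIC50.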

The subject of assay [3] is NIH/3T3 cells overexpressing FGFR3 WT-TACC3 fusion protein. The assay is described as follows: NIH/3T3 FGFR3 WT-TACC3 cellular phospho-ERK assay (in vitro PD assay). The format is cell-based. As to conditions: Mus musculus, NIH3T3; 1-hr incubation, AlphaLISA SureFire Ultra p-ERK1/2 (Thr202/Tyr204); read-out: NIH/3T3 FGFR3 WT-TACC3 pERK (IC50). As to the method:
NIH/3T3 FGFR3 WT-TACC3 Cellular Phospho-ERK Assay (In Vitro PD Assay)
50 μL of cell suspension (NIH/3T3 cells overexpressing FGFR3 WT-TACC3 fusion protein) (total 10,000 cells per well in growth medium (DMEM containing 1% Glutamax, 10% FBS and 1% Pen/Strep)) was seeded in a 384-well plate. After overnight incubation at 37° C. and 5% CO2, 5.5 μL of growth medium containing 10× testing compound was added into cell cultures (10 dose points with 4× serial dilution, starting with 10 μM, 0.1% DMSO final). After 1-hr incubation at 37° C. and 5% CO2, the medium was depleted and AlphaLISA SureFire Ultra p-ERK1/2 (Thr202/Tyr204) Assay Kit (from PerkinElmer) was applied for phospho-ERK level detection according to the kit instructions. The RFUs (relative fluorescence units were measured on EnVision microplate reader (ex. 680 nm, em. 615 nm) and concentration-response curve was plotted using Prism to calculate IC50 (M), pIC50 (−log IC50) and HillSlope value.
(In general: Alpha assays give light when donor and acceptor beads are brought close together.)

In assay [4] the test system is NIH/3T3 cells transfected with the same control vector. The assay is described as follows: NIH/3T3 mock cell proliferation assay (counter assay, general toxicity). It counts as cell-based. As to conditions: Mus musculus, NIH3T3, 72 h, 72-hr incubation, CellTiter Glo, starting with 30 μM; counter assay for general toxicity; read-out: NIH/3T3 MOCK CTG (IC50). A digest of the protocol: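 Control-vector NIH/3T3 cells, 30,000/well in DMEM with 10% FBS, exposed 72 h at 37 °C to compound (9 points, 3-fold from 30 μM, 0.3% DMSO). CellTiter-Glo luminescence normalized to survival %; IC50, pIC50 and Hill slope from concentration-response fit.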

T2 sequence (P22607 397-806 V555M limits assumed): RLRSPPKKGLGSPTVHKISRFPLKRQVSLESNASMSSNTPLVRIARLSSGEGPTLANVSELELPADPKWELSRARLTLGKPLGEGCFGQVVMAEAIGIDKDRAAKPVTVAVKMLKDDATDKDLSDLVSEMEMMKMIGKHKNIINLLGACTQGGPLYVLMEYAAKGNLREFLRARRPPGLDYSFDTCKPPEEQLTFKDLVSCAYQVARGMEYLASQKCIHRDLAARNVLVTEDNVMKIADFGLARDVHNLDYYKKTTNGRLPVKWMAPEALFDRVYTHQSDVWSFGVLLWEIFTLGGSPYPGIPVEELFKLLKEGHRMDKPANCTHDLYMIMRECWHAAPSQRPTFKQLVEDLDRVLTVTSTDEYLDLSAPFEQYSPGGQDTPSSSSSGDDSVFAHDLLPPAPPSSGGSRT
T1 sequence (P22607 whole entry V555M, the tested form may be a part): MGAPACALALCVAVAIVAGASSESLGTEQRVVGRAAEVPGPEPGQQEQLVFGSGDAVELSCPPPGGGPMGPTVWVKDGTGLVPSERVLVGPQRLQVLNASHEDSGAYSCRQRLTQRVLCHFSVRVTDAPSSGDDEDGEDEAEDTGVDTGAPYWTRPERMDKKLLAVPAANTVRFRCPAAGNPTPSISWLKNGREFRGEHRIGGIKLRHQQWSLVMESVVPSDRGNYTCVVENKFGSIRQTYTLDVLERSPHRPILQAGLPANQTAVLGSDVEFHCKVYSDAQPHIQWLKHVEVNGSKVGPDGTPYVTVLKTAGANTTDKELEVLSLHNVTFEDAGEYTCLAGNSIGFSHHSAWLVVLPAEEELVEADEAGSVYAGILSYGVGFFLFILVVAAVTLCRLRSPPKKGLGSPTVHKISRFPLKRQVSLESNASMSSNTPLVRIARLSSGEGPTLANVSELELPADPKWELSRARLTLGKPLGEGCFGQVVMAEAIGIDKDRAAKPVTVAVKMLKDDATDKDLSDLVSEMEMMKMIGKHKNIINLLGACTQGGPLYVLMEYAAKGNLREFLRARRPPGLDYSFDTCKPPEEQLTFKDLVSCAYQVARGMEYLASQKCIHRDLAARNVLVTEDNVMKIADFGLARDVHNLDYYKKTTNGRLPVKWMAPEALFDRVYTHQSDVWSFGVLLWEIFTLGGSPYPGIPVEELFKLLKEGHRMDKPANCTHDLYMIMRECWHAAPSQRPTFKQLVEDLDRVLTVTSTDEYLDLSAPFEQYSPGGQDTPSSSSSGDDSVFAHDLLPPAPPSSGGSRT

In the case of `C[C@H](Nc1c(-c2nc3ccc(N4CCOCC4)c(F)c3[nH]2)c(=O)[nH]c2ccccc12)c1ccccn1` [Compound 24, (S)-3-(7-fluoro-6-morpholino-1H-benzo[d]imidazol-2-yl)-4-((1-(pyridin-2-yl)ethyl)-amino)quinolin-2(1H)-one], the GI50 in assay [1] worked out at 39.4 nM. The IC50 was 0.929 nM in assay [2], 13.3 nM in assay [3] and 13100 nM in assay [4].

On to `C[C@@H]1CN(c2ccc3nc(-c4c(N[C@@H](C)c5ccccn5)c5ccccc5[nH]c4=O)[nH]c3c2)C[C@@H](C)O1` [Compound 21, 3-(6-((2R,6R)-2,6-dimethylmorpholino)-1H-benzo[d]imidazol-2-yl)-4-(((S)-1-(pyridin-2-yl)ethyl)amino)quinolin-2(1H)-one], for which the GI50 in assay [1] came to 48.8 nM. Further, the IC50 in assay [2] is 2.75 nM; in assay [3], 8.41 nM; in assay [4], 13600 nM.

Take `C[C@@H]1CN(c2ccc3nc(-c4c(N[C@@H](C)c5ccccn5)c5ccccc5[nH]c4=O)[nH]c3c2)C[C@H](C)O1` [Compound 4, 3-(6-((2S,6R)-2,6-dimethylmorpholino)-1H-benzo[d]imidazol-2-yl)-4-(((S)-1-(pyridin-2-yl)ethyl)amino)quinolin-2(1H)-one]: the GI50 in assay [1] came out at 42.7 nM. In addition, the IC50 is 1.34 nM in assay [2], 3.87 nM in assay [3] and 7690 nM in assay [4].

On to `C[C@H](Nc1c(-c2nc3ccc(N4CCOCC4)cc3[nH]2)c(=O)[nH]c2ccccc12)c1ncccn1` [Compound 2, (S)-3-(6-morpholino-1H-benzo[d]imidazol-2-yl)-4-((1-(pyrimidin-2-yl)ethyl)amino)-quinolin-2(1H)-one], for which the GI50 in assay [1] is 4.89 nM. Further, the IC50 in assay [2] was 0.213 nM; in assay [3], 1.24 nM; in assay [4], 15300 nM.

The values are drawn from patent US11384075B2, “Quinolinone compounds” (Janssen Pharmaceutica NV, priority 2017, dated 2022).
